Drawing on PubChem BioAssay (NCI), this text covers TGI and GI50 for eight molecules.

Test systems include A498 renal; HCT-116 colon; HS 578T breast; MOLT-4 leukemia; NCI-H226 lung; NCI/ADR-RES ovarian; SF-295 CNS; SK-OV-3 ovarian; SN12C renal; SNB-75 CNS.
Holding throughout (test): NCI tumour cell line growth inhibition, 48 h

Several values for one entry are separate records, joined by “and”; a condition that tells them apart may be missing. Identical values can stand only once.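 These data come from cells grown in 96-well plates and exposed to compound for 48 hours at five concentrations. Here, GI50 denotes the concentration required for 50% inhibition of growth. TGI: total growth inhibition.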

Consider `CC(=O)O[C@@H]1[C@H]2O[C@H]2[C@H]2O[C@@]2(COC(=O)c2ccccc2)[C@H]1OC(C)=O`, for which the TGI in the experiment on A498 renal, in the experiment with HCT-116 colon, in the experiment on HS 578T breast, in the experiment on MOLT-4 leukemia, with NCI-H226 lung and in the experiment on NCI/ADR-RES ovarian was > 100 µM each time. The TGI in the experiment with SF-295 CNS, in the experiment on SK-OV-3 ovarian, in the experiment with SN12C renal and with SNB-75 CNS was > 100 µM each time.
As to `COc1cc(C(=O)N[C@@H]2CCCN(C)C2)ccc1Nc1ncc2c(n1)N(C1CCCC1)CC(C)(C)C(=O)N2C`, the GI50 was 0.0715 µM in the experiment on A498 renal; 0.0509 µM with HCT-116 colon; 0.188 µM in the experiment on HS 578T breast; 0.0417 µM with MOLT-4 leukemia; 0.633 µM in the experiment on NCI-H226 lung; 0.344 µM in the experiment on NCI/ADR-RES ovarian. The GI50 in the experiment with SF-295 CNS is 0.109 µM; in the experiment on SK-OV-3 ovarian it was 0.0484 µM; with SN12C renal it was 0.347 µM; in the experiment on SNB-75 CNS it was 0.134 µM. The TGI with A498 renal was 0.774 µM; in the experiment on HCT-116 colon, 5.21 µM; with HS 578T breast it was 19.9 µM; in the experiment on MOLT-4 leukemia, 3.89 µM; with NCI-H226 lung, 21.9 µM; in the experiment with NCI/ADR-RES ovarian, 16.2 µM. The TGI stood at 3.56 µM in the experiment with SF-295 CNS, 2.42 µM in the experiment with SK-OV-3 ovarian, 16.6 µM in the experiment on SN12C renal and 4.74 µM in the experiment with SNB-75 CNS.
Take `COc1ncc(-c2ccc3nc(N)n(-c4ccccc4C(F)(F)F)c(=O)c3c2)cc1S(=O)(=O)Nc1ccc(F)cc1F`: the GI50 with A498 renal was 0.329 µM; in the experiment with HCT-116 colon, 1.7 µM; in the experiment with HS 578T breast, 1.3 µM; in the experiment with MOLT-4 leukemia it was 3.85 µM; with NCI-H226 lung it was 8.68 µM; with NCI/ADR-RES ovarian it was 1.94 µM. The GI50 in the experiment with SF-295 CNS is 1.41 µM; in the experiment with SK-OV-3 ovarian, 4.85 µM; with SN12C renal, 4.52 µM; with SNB-75 CNS it was 0.866 µM. Further, the TGI in the experiment on A498 renal is 1.96 µM; with HCT-116 colon it was 15.9 µM; in the experiment on HS 578T breast, 84.4 µM; in the experiment on MOLT-4 leukemia, 56.1 µM; with NCI-H226 lung, > 100 µM; in the experiment with NCI/ADR-RES ovarian it was 13.8 µM. Further, the TGI in the experiment on SF-295 CNS is 17.5 µM; in the experiment with SK-OV-3 ovarian, > 100 µM; in the experiment with SN12C renal, > 100 µM; in the experiment with SNB-75 CNS it was > 100 µM.
For the molecule `O=C(/C=C/c1ccccc1)c1ccccn1`, the TGI in the experiment on A498 renal is 29.6 µM and 37.6 µM; in the experiment on HCT-116 colon, 19.4 µM and 30.3 µM; with HS 578T breast, 77.3 µM; in the experiment with MOLT-4 leukemia, 61.4 µM and 72.6 µM; in the experiment with NCI-H226 lung, 37.5 µM and > 100 µM; with NCI/ADR-RES ovarian, 54.5 µM and > 100 µM. Besides, the TGI in the experiment on SF-295 CNS is 33.9 µM and 59.9 µM; in the experiment on SK-OV-3 ovarian it was 67 µM and > 100 µM; in the experiment on SN12C renal, 27.3 µM and 31.8 µM; in the experiment on SNB-75 CNS, 37.5 µM and 92.7 µM. The GI50 with HCT-116 colon was 6.9 µM and 15.4 µM.
Consider `COC(=O)[C@@H](C)C[C@H](Cc1ccccc1)NC(=O)c1nc([C@@H](C[C@H](C(C)C)N(C)C(=O)[C@@H](NC(=O)[C@H]2CC(=O)CCN2C)C(C)C)OC(C)=O)sc1C(C)C`, for which the GI50 with A498 renal is 0.0826 µM; in the experiment on HCT-116 colon, 0.169 µM; in the experiment with HS 578T breast it was 0.16 µM; with MOLT-4 leukemia, 0.532 µM; with NCI-H226 lung it was 0.415 µM; in the experiment with NCI/ADR-RES ovarian, 4.11 µM. For the same molecule, the GI50 in the experiment with SF-295 CNS was 0.277 µM; in the experiment with SK-OV-3 ovarian it was 0.809 µM; in the experiment with SN12C renal, 0.462 µM; with SNB-75 CNS, 0.0518 µM. The TGI is 0.818 µM in the experiment with A498 renal; 3.04 µM in the experiment on HCT-116 colon; > 3.85 µM in the experiment on HS 578T breast; > 16.7 µM with MOLT-4 leukemia; 2.95 µM with NCI-H226 lung; > 16.7 µM in the experiment on NCI/ADR-RES ovarian. Also, the TGI is 3.02 µM in the experiment on SF-295 CNS, > 16.7 µM in the experiment with SK-OV-3 ovarian, > 16.7 µM in the experiment with SN12C renal and > 15 µM in the experiment on SNB-75 CNS.
On to `CNC(=S)N/N=C/CSC/C=N/NC(=S)NC`, for which the GI50 is > 100 µM in the experiment on A498 renal; 8.33 µM in the experiment on HCT-116 colon; > 100 µM in the experiment on HS 578T breast; > 100 µM in the experiment with MOLT-4 leukemia; > 100 µM with NCI-H226 lung; > 100 µM in the experiment on NCI/ADR-RES ovarian. Besides, the GI50 in the experiment with SF-295 CNS, in the experiment with SK-OV-3 ovarian, with SN12C renal and in the experiment with SNB-75 CNS was > 100 µM each time. Further, the TGI in the experiment with A498 renal, in the experiment on HCT-116 colon, in the experiment on HS 578T breast, in the experiment with MOLT-4 leukemia, in the experiment with NCI-H226 lung and with NCI/ADR-RES ovarian was > 100 µM throughout. The TGI in the experiment on SF-295 CNS, in the experiment on SK-OV-3 ovarian, in the experiment with SN12C renal and in the experiment on SNB-75 CNS was > 100 µM each time.
As to `Cc1ccc(CNc2ccc(Cl)cc2NCc2ccc(C)c(O)c2)cc1O`, the GI50 is 8.55 µM in the experiment on A498 renal; 7.78 µM in the experiment with HCT-116 colon; 7.73 µM with HS 578T breast; 3.34 µM with MOLT-4 leukemia; 10 µM with NCI-H226 lung; 8.3 µM in the experiment on NCI/ADR-RES ovarian. Also, the GI50 was 8.24 µM in the experiment with SF-295 CNS, 8.24 µM with SK-OV-3 ovarian, 6.95 µM with SN12C renal and 5.47 µM in the experiment on SNB-75 CNS. Besides, the TGI with A498 renal amounted to 16.1 µM; with HCT-116 colon it was 14.6 µM; in the experiment with HS 578T breast, 24.6 µM; with MOLT-4 leukemia, 14.7 µM; in the experiment on NCI-H226 lung it was 22.1 µM; in the experiment on NCI/ADR-RES ovarian, 17.8 µM. For the same molecule, the TGI stood at 15.2 µM in the experiment with SF-295 CNS, 15.2 µM with SK-OV-3 ovarian, 14 µM with SN12C renal and 12.1 µM in the experiment on SNB-75 CNS.
Turning to `O=C1Nc2ccc(I)cc2/C1=C/c1cc(Br)c(O)c(Br)c1`, the GI50 is > 16.3 µM and 20.3 µM in the experiment on A498 renal; > 17.2 µM and 15.2 µM in the experiment on HCT-116 colon; > 17.9 µM and 21.3 µM in the experiment on HS 578T breast; > 60.1 µM in the experiment with MOLT-4 leukemia; > 25 µM and 27.8 µM in the experiment with NCI-H226 lung; > 21.8 µM and 28.2 µM in the experiment on NCI/ADR-RES ovarian. Moreover, the GI50 with SF-295 CNS is > 15.9 µM and 17.2 µM; with SK-OV-3 ovarian, > 25 µM and 17.9 µM; in the experiment with SN12C renal, > 25 µM and 25.9 µM; with SNB-75 CNS it was > 25 µM and 22.2 µM. For the same molecule, the TGI in the experiment with A498 renal was > 25 µM and 41.9 µM; with HCT-116 colon it was > 25 µM and 32.8 µM; with HS 578T breast, > 80.4 µM; in the experiment with MOLT-4 leukemia it was > 100 µM; with NCI-H226 lung it was > 25 µM and 81.2 µM; with NCI/ADR-RES ovarian it was > 100 µM. The TGI with SF-295 CNS was > 100 µM; in the experiment with SK-OV-3 ovarian it was > 25 µM and 47.5 µM; in the experiment with SN12C renal it was > 80.8 µM; in the experiment on SNB-75 CNS, > 90.3 µM.
